Paper PMC6030159 (Scientific Reports, 2018)
pIC50: −log10 of the molar value. Entries after “also recorded” stand apart in the source; their conditions may differ.

Legend:
[1] = system: T1, BCL-XL; assay: SPR binding to BCL-XL
T1 construct: purchased Abcam
Procedure: (§1) The MYC SPR assay was carried out as described above with MYCbHLHZip immobilized to a level of 800–1000 RU. For kinetic binding experiments, a Langmuir 1:1 binding event was applied using the Biacore T200 Evaluation Software 2.0 (GE Healthcare) to determine association (ka) and dissociation (kd) constants of the compound and to calculate affinity (KD) by the formula; KD = kd/ka. Binding responses from equilibrium binding experiments were plotted against compound concentration and KD values were determined at 50% of the theoretical Rmax with the formula Rmax = (MW analyte/MW ligand) × immobilized ligand level on the chip (RU) × stoichiometry (1:1). Same coupling method described above was used to immobilize the control proteins. MAX was immobilized to approximately 2000 RU, MAD to 600 RU, BSA to 1000 RU, p53 to 3000 RU and BCL-XL, to 500 RU.

[2] = system: p53; design: method as in PMID 19202599; conditions: cited from earlier work
[3] = target: S-adenosylmethionine decarboxylase (AdoMetDC); design: method as in PMID 17676832; conditions: cited from earlier work
[4] = system: T2, p53 core protein; assay: SPR binding to p53
T2 construct: Truncated p53 core protein was a kind gift from Klas Wiman; gift from Klas Wiman, CCK, Karolinska Institutet
Procedure: as §1

[5] = target: T3, MYCbHLHZip:MAXbHLHZip (Homo sapiens, UniProt P01106); assay: SPR MYC:MAX heterodimer formation assay; format: binding; conditions: 100 nM MYCbHLHZip over immobilized MAXbHLHZip
T3 construct: 6xHis (N); made in house; host or cells: E. coli BL21 (DE3), pET28a
T3 sequence (P01106 367-447 limits assumed): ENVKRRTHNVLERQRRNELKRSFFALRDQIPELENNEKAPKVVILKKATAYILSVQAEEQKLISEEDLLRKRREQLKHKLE
Procedure: The SPR method is a highly sensitive assay to determine the affinity between protein and ligand and to measure the kinetics of the interaction. In the SPR MYC:MAX interaction assay, MAXbHLHZip was covalently attached onto a sensor chip and MYCbHLHZip pre-mixed with compound was injected over the surface and thereafter allowed to dissociate.
The SPR experiments were performed at 25 °C using a Biacore T200 (GE Healthcare) instrument kindly provided by SciLifeLab Solna. An amino coupling procedure was used to immobilize protein on a CM5 sensor chip (GE Healthcare). Sensorgrams were generated by subtraction of the reference (blank immobilized) surface. All details will be described in Castell et al. (manuscript in preparation). In general, for the MYC:MAX interaction assay, 200–500 RU of MAXbHLHZip was immobilized and 100 nM MYCbHLHZip pre-incubated with compound in PBS supplemented with 0.05% Tween-20 and 1% DMSO was injected with a flow rate of 30 µl/min and allowed to dissociate. MAX was regenerated by injection of PBS buffer supplemented with Urea.

[6] = system: T4, MYCN:MAX interaction; assay: isPLA MYCN:MAX on xenograft tumor tissue; format: in vivo, mouse; conditions: 20 mg/kg i.p. daily, 1–2 weeks, vs vehicle
T4 construct: from tissue; host or cells: SK-N-DZ xenograft tumour grown in athymic nude mice
Procedure: isPLA for tumor tissue was performed using 4% formaldehyde fixed paraffin embedded material. The tissue slides were deparaffinized at 65 °C for an hour, rehydrated in 1X Aqua De Par (Biocare Medical) and incubated at 80 °C for 10 min in a pressure chamber (Decloaking Chamber™ Biocare Medical). Slides were soaked in antigen retrieval buffer (10 mM sodium citrate, pH 6.0) and heated in the pressure chamber to 100 °C for 20 minutes, after which the temperature was lowered to 65 °C. Slides were removed from the chamber and cooled down to room temperature. The antigen retrieval buffer was replaced gradually by deionized H2O for 15 min. Slides were placed in blocking buffer (Duolink® isPLA kit) for 1.5 hours at 37 °C followed by an extra blocking step using the Mouse on Mouse (M.O.M.™) basic kit (Vector Laboratories) according to manufacturers’ protocol. isPLA was performed as above.
The last dose was administered 3 hrs before termination.

[7] = system: normal IMR-90 and BJ human fibroblasts; assay: Viable/dead cell counting, normal fibroblasts; format: cell-based; conditions: 12.5 μM, 24 hours
Procedure: Triton-X-114 (Sigma). Truncated p53 core protein was a kind gift from Klas Wiman, CCK, […]
Cell proliferation assays. Cell growth and viability was estimated in triplicates with WST-1 (Roche) or Resazurin sodium salt (Sigma-Aldrich) assays in medium at 37°C and 5% CO 2 for 2 hours after which absorbance or fluorescence, respectively, was measured with an Omega Fluostar (BMG Labtech) in a 96 well plate format. Cell counting was done in 96 well plates with CellTracker Green (ThermoFisher) for 30 min in the incubator, after which DAPI was added for 5 min. Images were taken in the green (FITC) and blue (DAPI) channels using a fluorescence microscope (ImageXpress Micro, Molecular Devices). […] After 16 days, the colonies were stained with 100 µg/ml MTT (Sigma) overnight and colonies were counted.
Immunohistochemistry. Apoptosis was visualized at the single-cell level on tumor cryosections using the TUNEL method using the In Situ Cell Death Detection Fluorescein-Roche kit and analyzed by fluorescence microscopy. […] Cell proliferation and microvascular density (MVD) were evaluated through Ki67 and CD31staining, respectively, on tumor cryosections and detected by immunofluoresence. […] For quantification, areas with positive TUNEL and Ki67 staining were measured using Image J software. For the analysis of MVD, the number of vessel structures per microscopic field was calculated.

[8] = system: Burkitt's lymphoma cell lines Mutu, Daudi and ST486; assay: Growth of Burkitt's lymphoma cell lines; format: cell-based
Procedure: Cell proliferation assays. Cell growth and viability was estimated in triplicates with WST-1 (Roche) or Resazurin sodium salt (Sigma-Aldrich) assays in medium at 37°C and 5% CO 2 for 2 hours after which absorbance or fluorescence, respectively, was measured with an Omega Fluostar (BMG Labtech) in a 96 well plate format. Cell counting was done in 96 well plates with CellTracker Green (ThermoFisher) for 30 min in the incubator, after which DAPI was added for 5 min. Images were taken in the green (FITC) and blue (DAPI) channels using a fluorescence microscope (ImageXpress Micro, Molecular Devices). […]
0.7% agarose. […]

[9] = system: HDM2; design: method as in PMID 19202599; conditions: cited from earlier work
[10] = system: T5, BSA; assay: SPR binding to BSA; design: species or system bovine
T5 construct: purchased NanoTemper (included in the MST kit)
Procedure: as §1

For `CCOc1ccc2nc3cc(/N=N/c4ccc(N)nc4N)ccc3c(N)c2c1` [MYCMI-6], the “fold lower affinity for BCL-XL than for MYC” value [1] is given as at least 5 fold, the “binding to BCL-XL, % of the theoretical maximum (SPR)” value ([1]; 2 μM MYCMI-6) is given as 10% and the “concentrations causing increased expression of p53 in cells” value [2] is given as at least 5 µM. The “IC50 for AdoMetDC relative to MYC:MAX in vitro” value [3] was “approximately 10 fold”, the “binding to p53 (SPR)” value [4] was “negligible” and the pIC50 [5] was 5.42. For the same molecule, the “MYCN:MAX interaction in tumors (isPLA)” value [6] was “significant reduction”, the “number of viable cells and percentage of dead cells, normal fibroblasts” value [7] was “only marginal effects; also recorded: not cytotoxic” and the GI50 ([8]; Burkitts lymphoma cell, Mutu, Daudi, ST486, read-out: average GI50, Burkitt's lymphoma cells) was 500 nM. The “lowest IC50/GI50 of tumor cell growth” value ([8]; neuroblastoma and Burkitt's lymphoma cells with deregulated MYCN/MYC, as low as) was at least 500 nM, the “IC50 for HDM2 relative to MYC:MAX in vitro” value [9] was “approximately 10 fold” and the “binding to BSA (SPR)” value [10] was “negligible”.
